The source of these data is patent publication US9487511B2, “Cyclopropanamine compound and use thereof” (Takeda Pharmaceutical Company Limited, priority 2014, dated 2016).

In one data set the target is human LSD1(172-833) (Homo sapiens (Human), UniProt O60341). Nature of the data set: Measurement of LSD1 inhibitory activity (time-resolved fluorescence, biotin-histone H3 mono methylated K4 peptide).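 Also: after the compound–enzyme step, substrate reaction 5 min at room temperature in Tris-HCl pH 8.0 with BSA and DTT, halted by 2-PCPA, detected with europium anti-histone H3 antibody plus Streptavidin-XL665.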 It counts as biochemical. The note with it: 60 min preincubation with enzyme at room temperature.
The target of another data set is MAO-A enzyme (Homo sapiens (Human), UniProt P21397). The data set is described as follows: Measurement of MAO-A inhibitory activity (MAO-Glo Assay). It counts as biochemical.
MAO-A enzyme, sequence (P21397 whole entry): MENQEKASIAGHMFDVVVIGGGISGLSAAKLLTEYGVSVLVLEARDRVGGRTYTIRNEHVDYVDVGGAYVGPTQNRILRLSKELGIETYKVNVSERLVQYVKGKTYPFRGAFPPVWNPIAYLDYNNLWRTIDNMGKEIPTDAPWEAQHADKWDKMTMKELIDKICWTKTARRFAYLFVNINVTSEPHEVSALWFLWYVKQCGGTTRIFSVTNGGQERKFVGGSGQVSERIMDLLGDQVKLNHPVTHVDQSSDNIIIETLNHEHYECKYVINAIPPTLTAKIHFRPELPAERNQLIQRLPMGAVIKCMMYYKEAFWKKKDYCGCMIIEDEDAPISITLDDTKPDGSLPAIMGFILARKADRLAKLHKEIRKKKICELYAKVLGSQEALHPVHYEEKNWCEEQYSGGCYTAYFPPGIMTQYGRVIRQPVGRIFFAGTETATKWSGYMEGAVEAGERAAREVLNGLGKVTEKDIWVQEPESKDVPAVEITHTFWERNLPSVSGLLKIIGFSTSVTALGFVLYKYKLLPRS
A further data set deals with MAO-B enzyme (Homo sapiens (Human), UniProt P27338). The data set is described as follows: Measurement of MAO-B inhibitory activity (MAO-Glo Assay). It counts as biochemical.
MAO-B enzyme, sequence (P27338 whole entry): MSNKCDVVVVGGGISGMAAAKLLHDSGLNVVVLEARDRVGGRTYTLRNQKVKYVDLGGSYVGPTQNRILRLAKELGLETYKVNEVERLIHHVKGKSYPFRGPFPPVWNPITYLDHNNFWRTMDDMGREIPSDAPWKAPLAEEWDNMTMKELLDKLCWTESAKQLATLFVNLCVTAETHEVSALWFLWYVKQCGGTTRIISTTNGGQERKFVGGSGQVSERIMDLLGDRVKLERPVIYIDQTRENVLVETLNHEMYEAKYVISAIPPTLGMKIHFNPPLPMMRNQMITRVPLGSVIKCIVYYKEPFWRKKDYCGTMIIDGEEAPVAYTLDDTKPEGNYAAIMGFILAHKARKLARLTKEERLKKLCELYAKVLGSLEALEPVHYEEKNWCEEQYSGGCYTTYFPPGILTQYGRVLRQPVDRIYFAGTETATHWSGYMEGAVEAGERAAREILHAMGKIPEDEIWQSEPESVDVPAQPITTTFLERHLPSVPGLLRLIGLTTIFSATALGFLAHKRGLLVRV
Data set [1] is described as follows: Evaluation of blood cell number in mouse. It counts as in vivo. The note with it: male ICR mice, oral, repeated 7 or 9 days. The protocol: All compounds were repeatedly administered to the mice at a dose of 1 mg/kg, 10 mg/kg or 100 mg/kg (body weight) for 7 or 9 days. One day after the final administration of the compound, the whole blood was collected.
Using Sysmex XT-1800i (Sysmex Corporation), the white blood cell number, red blood cell number, and platelet number in the collected whole blood per unit volume were measured. The influence of each compound on each blood cell number was determined by calculating the number with the mean of each blood cell number of the mouse without administration of the compound (0 mg/kg group), and the mean of each blood cell number in the whole blood of a mouse with the administration of the compound.

Counter-ions that a name gives are not always drawn. Like-named read-outs stand apart in the source and are kept apart here. A value given as a limit tells only on which side of the number the result lay.

Usually IC50 stands for the concentration that inhibits the measured activity by half. Higher therefore signals a need for much substance.

Procedure for MAO-A enzyme: The MAO-A inhibitory activity evaluation described below followed the protocol of MAO-Glo (registered trademark) Assay of Promega KK.
A test compound dissolved in DMSO was added to a reaction solution (100 mM HEPES (pH 7.5), 5% glycerol) containing MAO-A enzyme (Sigma-Aldrich Co. LLC.), and the mixture was reacted at room temperature for 15 min. MAO substrate (Promega KK) was added to start the reaction. After reaction at room temperature for 60 min, Luciferine detection reagent (Promega KK) was added to terminate the reaction. After reaction at room temperature for 20 min with stirring, the luminescence was measured by Envision (PerkinElmer). The MAO-A inhibitory rate (%) of the test compound was calculated by the following formula. inhibitory rate (%)=(1−(test compound count−blank)÷(control−blank))×100
The count of the MAO-A enzyme reaction mixture under compound non-addition conditions is indicated as control, and the count under compound non-addition and MAO-A enzyme non-addition conditions is indicated as blank.
Procedure for MAO-B enzyme: The MAO-B inhibitory activity evaluation described below followed the protocol of MAO-Glo (registered trademark) Assay of Promega KK.
A test compound dissolved in DMSO was added to a reaction solution (100 mM HEPES (pH 7.5), 5% glycerol, 10% DMSO) containing MAO-B enzyme (Sigma-Aldrich Co. LLC.), and the mixture was reacted at room temperature for 15 min. MAO substrate (Promega KK) was added to start the reaction. After reaction at room temperature for 60 min, Luciferine detection reagent (Promega KK) (50 μL) was added to terminate the reaction. After reaction at room temperature for 20 min with stirring, the luminescence was measured by Envision (PerkinElmer). The MAO-B inhibitory rate (%) of the test compound was calculated by the following formula. inhibitory rate (%)=(1−(test compound count−blank)÷(control−blank))×100
The count of the MAO-B enzyme reaction mixture under compound non-addition conditions is indicated as control, and the count under compound non-addition and MAO-B enzyme non-addition conditions is indicated as blank.
Procedure for human LSD1(172-833): A test compound dissolved in DMSO was added by to a reaction solution (50 mM Tris-HCl (pH 8.0), 0.1% BSA, 1 mM DTT) containing LSD1 enzyme, and the mixture was reacted at room temperature for 60 min. […] After reaction at room temperature for 5 min, 2-PCPA solution was added to terminate the reaction. A detection solution (800 mM potassium fluoride, 0.1% BSA) containing europium-labeled anti-histone H3 antibody (Wako Pure Chemical Industries, Ltd.) and Streptavidin-XL665 (Cisbio) was further added, and the mixture was left standing for 60 min. […] The LSD1 inhibitory rate (%) of the test compound was calculated by the following formula. inhibitory rate (%)=(1−(test compound count−blank)÷(control−blank))×100
The count of the LSD1 enzyme reaction mixture under compound non-addition conditions is indicated as control, and the count under compound non-addition and LSD1 enzyme non-addition conditions is indicated as blank. A concentration necessary for achieving 50% inhibitory rate was taken as ICH value.

`O=C(NC1CCOCC1)c1csc([C@@H]2C[C@H]2NCC2CCC2)c1` [Example 112, 5-((1R,2R)-2-((cyclobutylmethyl)amino)cyclopropyl)-N-(tetrahydro-2H-pyran-4-yl)thiophene-3-carboxamide]: the IC50 against human LSD1(172-833) is less than 0.1 µM; at MAO-A enzyme, greater than 100 µM; against MAO-B enzyme, greater than 100 µM.
Turning to `O=C(NC1CCCC1)c1csc(C2CC2NC2CCOCC2)c1` (single isomer, unassigned) [Example 39], the IC50 at human LSD1(172-833) was less than 0.1 µM; on MAO-A enzyme it was 23 µM; on MAO-B enzyme, greater than 100 µM.
For `CCn1cc(NC(=O)c2csc([C@@H]3C[C@H]3NCC3CCOCC3)c2)cn1` [Example 86, N-(1-ethyl-1H-pyrazol-4-yl)-5-((1R,2R)-2-((tetrahydro-2H-pyran-4-ylmethyl)amino)cyclopropyl)thiophene-3-carboxamide dihydrochloride], in that order: less than 0.1 µM, 87 µM and greater than 100 µM.
As for `O=C(NC1CC1)c1csc([C@@H]2C[C@H]2NCC2CCOCC2)c1` [Example 56, N-cyclopropyl-5-((1R,2R)-2-((tetrahydro-2H-pyran-4-ylmethyl)amino)cyclopropyl)thiophene-3-carboxamide hydrochloride], the half-inhibitory concentration (IC50) is less than 0.1 µM against human LSD1(172-833), greater than 100 µM on MAO-A enzyme and greater than 100 µM against MAO-B enzyme.
In the case of `Cc1sc([C@@H]2C[C@H]2NCC2CC2)cc1C(=O)NC1CCC(F)(F)CC1` (relative stereo) [Example 65, 5-(trans-2-((cyclopropylmethyl)amino)cyclopropyl)-N-(4,4-difluorocyclohexyl)-2-methylthiophene-3-carboxamide hydrochloride], the figures for the IC50 against human LSD1(172-833), on MAO-A enzyme and against MAO-B enzyme were less than 0.1 µM, 25 µM and greater than 100 µM, respectively.
For the molecule `O=C(NC1CCC(F)(F)CC1)c1csc([C@@H]2C[C@H]2NCC2CCOCC2)c1` [Example 51, N-(4,4-difluorocyclohexyl)-5-((1R,2R)-2-((tetrahydro-2H-pyran-4-ylmethyl)amino)cyclopropyl)thiophene-3-carboxamide hydrochloride], the IC50 on human LSD1(172-833) was less than 0.1 µM; against MAO-A enzyme, greater than 100 µM; on MAO-B enzyme, greater than 100 µM.
Turning to `Cc1nnc(NC(=O)c2cc([C@H]3C[C@@H]3NCC3CCOCC3)cs2)s1` [Example 74, N-(5-methyl-1,3,4-thiadiazol-2-yl)-4-((1R,2S)-2-((tetrahydro-2H-pyran-4-ylmethyl)amino)cyclopropyl)thiophene-2-carboxamide hydrochloride], the IC50 on human LSD1(172-833) is less than 0.1 µM; against MAO-A enzyme it was greater than 100 µM; on MAO-B enzyme, greater than 100 µM.
Turning to `O=C(NC1CCN(CC(F)(F)F)CC1)c1csc([C@@H]2C[C@H]2NCC2CCOCC2)c1` [Example 52, 5-((1R,2R)-2-((tetrahydro-2H-pyran-4-ylmethyl)amino)cyclopropyl)-N-(1-(2,2,2-trifluoroethyl)piperidin-4-yl)thiophene-3-carboxamide hydrochloride], the IC50 at human LSD1(172-833) was less than 0.1 µM; at MAO-A enzyme it was greater than 100 µM; on MAO-B enzyme, greater than 100 µM.
On to `Cc1nnc(NC(=O)c2cc([C@@H]3C[C@H]3NCC3CC3)c(C)s2)s1` [Example 95, 4-((1S,2R)-2-((cyclopropylmethyl)amino)cyclopropyl)-5-methyl-N-(5-methyl-1,3,4-thiadiazol-2-yl)thiophene-2-carboxamide fumarate], for which, in data set [1] (1 mg/kg), the “Platelets, Mean” value is given as 1352 10^3 cells; the “Red blood cells, Mean” value is 888 10^4 cells; the “White blood cells, Mean” value is 422 10 cells. In data set [1] (10 mg/kg), the “Platelets, Mean” value is given as 1482 10^3 cells; the “Red blood cells, Mean” value is on record as 898 10^4 cells; the “White blood cells, Mean” value was 408 10 cells.
Consider `O=C(NC1CCC(F)(F)CC1)c1csc([C@@H]2C[C@H]2NC2CCN(C3CC3)CC2)c1` [Example 80, 5-((1R,2R)-2-((1-cyclopropylpiperidin-4-yl)amino)cyclopropyl)-N-(4,4-difluorocyclohexyl)thiophene-3-carboxamide hydrochloride], for which the IC50 at human LSD1(172-833) is less than 0.1 µM; at MAO-A enzyme, greater than 100 µM; against MAO-B enzyme, greater than 100 µM.
In the case of `Cc1nnc(NC(=O)c2cc([C@@H]3C[C@H]3NCC3CCOCC3)cc3ccccc23)s1` (relative stereo) [Example 16, N-(5-methyl-1,3,4-thiadiazol-2-yl)-3-(trans-2-((tetrahydro-2H-pyran-4-ylmethyl)amino)cyclopropyl)-1-naphthamide dihydrochloride], the IC50 on human LSD1(172-833) was less than 0.1 µM; at MAO-A enzyme, greater than 100 µM; at MAO-B enzyme, greater than 100 µM.
In the case of `Cc1nnc(NC(=O)c2csc(C3CC3NCC3CCOCC3)c2)s1` (single isomer, unassigned) [Example 41, dihydrochloride], the IC50 on human LSD1(172-833) is less than 0.1 µM; on MAO-A enzyme (dihydrochloride), 67 µM.
Consider `Cc1nnc(NC(=O)c2csc([C@@H]3C[C@H]3NCC3CC3)c2)s1` (relative stereo) [Example 23, 5-(trans-2-((cyclopropylmethyl)amino)cyclopropyl)-N-(5-methyl-1,3,4-thiadiazol-2-yl)thiophene-3-carboxamide dihydrochloride], for which the IC50 against MAO-A enzyme and against MAO-B enzyme was greater than 100 µM each time.
Turning to `Cc1sc([C@@H]2C[C@H]2NCC2CCOCC2)cc1C(=O)NC1CCC(F)(F)CC1` (relative stereo) [Example 66, N-(4,4-difluorocyclohexyl)-2-methyl-5-(trans-2-((tetrahydro-2H-pyran-4-ylmethyl)amino)cyclopropyl)thiophene-3-carboxamide hydrochloride], the IC50 against human LSD1(172-833) was less than 0.1 µM; on MAO-A enzyme, 98 µM; against MAO-B enzyme, greater than 100 µM.
As to `Cc1nn(C)cc1NC(=O)c1csc([C@@H]2C[C@H]2NCC2CCOCC2)c1` [Example 54, N-(1,3-dimethyl-1H-pyrazol-4-yl)-5-((1R,2R)-2-((tetrahydro-2H-pyran-4-ylmethyl)amino)cyclopropyl)thiophene-3-carboxamide dihydrochloride], the figures for the IC50 at human LSD1(172-833), against MAO-A enzyme and on MAO-B enzyme were less than 0.1 µM, greater than 100 µM and greater than 100 µM, respectively.
As to `O=C(NC1CCC(F)(F)CC1)c1csc([C@@H]2C[C@H]2NC2CCOCC2)c1` [Example 44, N-(4,4-difluorocyclohexyl)-5-((1R,2R)-2-(tetrahydro-2H-pyran-4-ylamino)cyclopropyl)thiophene-3-carboxamide hydrochloride], the IC50 against human LSD1(172-833) is less than 0.1 µM; against MAO-A enzyme it was greater than 100 µM; on MAO-B enzyme it was 100 µM.
The corresponding values for `Cc1nnc(NC(=O)c2cc([C@@H]3C[C@H]3NCC3CCOCC3)sc2C)s1` (relative stereo) [Example 70, 2-methyl-N-(5-methyl-1,3,4-thiadiazol-2-yl)-5-(trans-2-((tetrahydro-2H-pyran-4-ylmethyl)amino)cyclopropyl)thiophene-3-carboxamide dihydrochloride] are less than 0.1 µM, 10 µM and 23 µM.
For `Cc1nnc(NC(=O)c2cc([C@@H]3C[C@H]3NCC3CCOCC3)cs2)s1` (relative stereo) [Example 58, N-(5-methyl-1,3,4-thiadiazol-2-yl)-4-(trans-2-((tetrahydro-2H-pyran-4-ylmethyl)amino)cyclopropyl)thiophene-2-carboxamide hydrochloride], in that order: less than 0.1 µM, greater than 100 µM and greater than 100 µM.
As for `O=C(NC1CCC(F)(F)CC1)c1csc([C@@H]2C[C@H]2NCC2CC2)c1` (relative stereo) [Example 30, 5-(trans-2-((cyclopropylmethyl)amino)cyclopropyl)-N-(4,4-difluorocyclohexyl)thiophene-3-carboxamide hydrochloride], the IC50 at human LSD1(172-833) is less than 0.1 µM; on MAO-A enzyme, greater than 100 µM; against MAO-B enzyme, greater than 100 µM.
With `Cc1sc(C(=O)Nc2cnn(C)c2)cc1[C@@H]1C[C@H]1NC1CCC1` [Example 104, 4-((1S,2R)-2-(cyclobutylamino)cyclopropyl)-5-methyl-N-(1-methyl-1H-pyrazol-4-yl)thiophene-2-carboxamide dihydrochloride], in data set [1] (1 mg/kg, dihydrochloride), the “Platelets, Mean” value is 1370 10^3 cells; the “Red blood cells, Mean” value is 870 10^4 cells; the “White blood cells, Mean” value was 373 10 cells. In addition, in data set [1] (10 mg/kg, dihydrochloride), the “Platelets, Mean” value is 1404 10^3 cells; the “Red blood cells, Mean” value is 872 10^4 cells; the “White blood cells, Mean” value is 397 10 cells.
As for `Cc1ncc(NC(=O)c2csc([C@@H]3C[C@H]3NC3CCOCC3)c2)s1` [Example 50, N-(2-methyl-1,3-thiazol-5-yl)-5-((1R,2R)-2-(tetrahydro-2H-pyran-4-ylamino)cyclopropyl)thiophene-3-carboxamide hydrochloride], the values for the IC50 against human LSD1(172-833), against MAO-A enzyme and on MAO-B enzyme were less than 0.1 µM, greater than 100 µM and greater than 100 µM, respectively.
Molecule `Cc1nnc(NC(=O)c2cc([C@@H]3C[C@H]3NCC3CCOCC3)cs2)s1` [Example 72, N-(5-methyl-1,3,4-thiadiazol-2-yl)-4-((1S,2R)-2-((tetrahydro-2H-pyran-4-ylmethyl)amino)cyclopropyl)thiophene-2-carboxamide hydrochloride] yielded an IC50 against human LSD1(172-833) of less than 0.1 µM.
